Laboratory results from ChEMBL document CHEMBL1150306, “2-Trifluoroacetylthiophenes, a novel series of potent and selective class II histone deacetylase inhibitors” (Bioorg Med Chem Lett, 2008).
Calls of active or inactive are those of the source. The calls are words filed in the database; no cut-off is given here.

Columns and labels:
Histone deacetylase 3 [1] = target: T1, Histone deacetylase 3 (Homo sapiens, UniProt O15379); assay: Inhibition of HDAC3 at 10 uM
Histone deacetylase 1 [2] = target: T2, Histone deacetylase 1 (Homo sapiens, UniProt Q13547); assay: Inhibition of HDAC1 at 10 uM
[3] = tested on: T3, Histone deacetylase 4 (Homo sapiens), P56524 [H976Y]; assay: Inhibition of HDAC4GOF mutant at 10 uM
T3 sequence (whole entry): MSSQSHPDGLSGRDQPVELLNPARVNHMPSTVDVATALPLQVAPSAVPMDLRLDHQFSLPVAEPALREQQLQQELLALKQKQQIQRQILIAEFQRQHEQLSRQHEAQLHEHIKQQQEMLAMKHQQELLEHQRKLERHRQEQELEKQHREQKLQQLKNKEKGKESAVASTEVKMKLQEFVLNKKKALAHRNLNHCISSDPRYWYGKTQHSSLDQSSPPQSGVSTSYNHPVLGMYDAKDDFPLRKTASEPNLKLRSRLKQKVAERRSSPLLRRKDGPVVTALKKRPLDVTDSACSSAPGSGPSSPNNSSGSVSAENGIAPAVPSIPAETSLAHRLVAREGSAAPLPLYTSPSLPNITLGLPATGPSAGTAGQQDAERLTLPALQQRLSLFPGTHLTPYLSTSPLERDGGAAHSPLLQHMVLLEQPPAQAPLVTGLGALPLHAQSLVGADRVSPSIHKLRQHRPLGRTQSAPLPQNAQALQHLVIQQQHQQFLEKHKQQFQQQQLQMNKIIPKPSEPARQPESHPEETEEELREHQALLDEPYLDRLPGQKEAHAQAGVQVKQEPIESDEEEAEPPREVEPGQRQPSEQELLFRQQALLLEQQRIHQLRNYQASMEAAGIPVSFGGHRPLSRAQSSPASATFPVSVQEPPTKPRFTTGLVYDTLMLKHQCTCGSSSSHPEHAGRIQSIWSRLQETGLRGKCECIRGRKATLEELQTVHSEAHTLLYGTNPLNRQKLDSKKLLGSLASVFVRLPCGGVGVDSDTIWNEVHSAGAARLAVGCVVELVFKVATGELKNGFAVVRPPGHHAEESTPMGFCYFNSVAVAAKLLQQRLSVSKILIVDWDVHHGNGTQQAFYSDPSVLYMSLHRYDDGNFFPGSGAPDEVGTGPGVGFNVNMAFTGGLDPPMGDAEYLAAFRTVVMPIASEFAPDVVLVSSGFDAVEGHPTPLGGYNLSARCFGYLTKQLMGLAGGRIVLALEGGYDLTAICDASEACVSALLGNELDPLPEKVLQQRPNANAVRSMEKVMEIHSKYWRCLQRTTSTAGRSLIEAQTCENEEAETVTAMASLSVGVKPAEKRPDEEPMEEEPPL

Histone deacetylase 4 [4] = target: T4, Histone deacetylase 4 (Homo sapiens, UniProt P56524); assay: Inhibition of wild type HDAC4 at 10 uM
[5] = target: T5, Protein deacetylase HDAC6 (Homo sapiens) (UniProt Q9UBN7); assay: Inhibition of HDAC6 at 10 uM
T5 sequence (whole entry): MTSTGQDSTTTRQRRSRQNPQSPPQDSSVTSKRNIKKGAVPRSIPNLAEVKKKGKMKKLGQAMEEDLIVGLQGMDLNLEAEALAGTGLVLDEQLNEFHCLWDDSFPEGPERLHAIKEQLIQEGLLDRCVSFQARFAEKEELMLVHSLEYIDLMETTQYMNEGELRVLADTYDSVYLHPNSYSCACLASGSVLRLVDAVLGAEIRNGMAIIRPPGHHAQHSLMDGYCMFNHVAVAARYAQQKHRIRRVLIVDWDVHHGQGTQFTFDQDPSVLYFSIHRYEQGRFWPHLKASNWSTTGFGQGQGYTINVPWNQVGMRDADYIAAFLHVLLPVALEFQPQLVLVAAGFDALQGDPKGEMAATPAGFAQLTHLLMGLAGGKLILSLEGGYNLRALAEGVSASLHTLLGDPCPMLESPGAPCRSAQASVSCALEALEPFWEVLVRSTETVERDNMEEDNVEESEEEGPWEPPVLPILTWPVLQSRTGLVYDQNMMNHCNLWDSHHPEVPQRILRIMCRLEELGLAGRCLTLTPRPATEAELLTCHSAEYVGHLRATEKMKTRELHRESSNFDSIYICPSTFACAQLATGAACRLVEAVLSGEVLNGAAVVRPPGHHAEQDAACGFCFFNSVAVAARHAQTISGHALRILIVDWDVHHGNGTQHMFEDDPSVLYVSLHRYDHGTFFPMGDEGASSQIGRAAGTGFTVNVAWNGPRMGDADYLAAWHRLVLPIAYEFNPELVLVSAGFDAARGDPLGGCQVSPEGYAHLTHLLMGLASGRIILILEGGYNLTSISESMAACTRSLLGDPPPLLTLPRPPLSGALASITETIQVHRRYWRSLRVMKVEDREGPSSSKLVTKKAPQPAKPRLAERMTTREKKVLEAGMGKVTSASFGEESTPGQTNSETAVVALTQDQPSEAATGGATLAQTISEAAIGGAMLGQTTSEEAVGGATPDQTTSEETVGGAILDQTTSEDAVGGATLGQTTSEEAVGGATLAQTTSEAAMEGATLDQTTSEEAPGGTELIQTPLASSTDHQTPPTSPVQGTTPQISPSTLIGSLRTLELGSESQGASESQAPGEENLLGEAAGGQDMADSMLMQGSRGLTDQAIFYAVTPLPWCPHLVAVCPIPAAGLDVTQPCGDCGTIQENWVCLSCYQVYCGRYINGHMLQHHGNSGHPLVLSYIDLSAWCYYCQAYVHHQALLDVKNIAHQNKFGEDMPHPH

Histone deacetylase 1 [6] = target: T2, Histone deacetylase 1; assay: Inhibition of HDAC1
Histone deacetylase 3 [7] = target: T1, Histone deacetylase 3; assay: Inhibition of HDAC3
[8] = target: T6, Protein deacetylase HDAC6 (Homo sapiens, UniProt Q9UBN7); assay: Inhibition of HDAC6
T6 sequence (Q9UBN7 whole entry): T5 sequence (whole entry)

Histone deacetylase 4 [9] = target: Histone deacetylase 4 (Homo sapiens, UniProt P56524, H976Y); assay: Inhibition of HDAC4GOF mutant expressed in Escherichia coli
Histone deacetylase 4 [10] = target: T4, Histone deacetylase 4; assay: Inhibition of wild type HDAC4 expressed in Escherichia coli

T1 sequence (O15379 whole entry): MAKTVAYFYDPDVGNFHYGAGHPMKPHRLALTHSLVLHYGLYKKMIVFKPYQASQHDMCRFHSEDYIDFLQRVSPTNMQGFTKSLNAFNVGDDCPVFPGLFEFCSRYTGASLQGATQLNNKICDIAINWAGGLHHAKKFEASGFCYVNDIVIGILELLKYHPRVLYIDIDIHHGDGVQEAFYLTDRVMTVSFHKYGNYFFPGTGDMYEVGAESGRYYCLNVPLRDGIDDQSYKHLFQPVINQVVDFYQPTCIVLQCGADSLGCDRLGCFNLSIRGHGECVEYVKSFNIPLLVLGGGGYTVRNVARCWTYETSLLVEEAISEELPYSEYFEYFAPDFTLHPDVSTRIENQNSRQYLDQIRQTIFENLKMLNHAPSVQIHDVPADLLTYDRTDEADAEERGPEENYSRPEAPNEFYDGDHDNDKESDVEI
T4 sequence (P56524 whole entry): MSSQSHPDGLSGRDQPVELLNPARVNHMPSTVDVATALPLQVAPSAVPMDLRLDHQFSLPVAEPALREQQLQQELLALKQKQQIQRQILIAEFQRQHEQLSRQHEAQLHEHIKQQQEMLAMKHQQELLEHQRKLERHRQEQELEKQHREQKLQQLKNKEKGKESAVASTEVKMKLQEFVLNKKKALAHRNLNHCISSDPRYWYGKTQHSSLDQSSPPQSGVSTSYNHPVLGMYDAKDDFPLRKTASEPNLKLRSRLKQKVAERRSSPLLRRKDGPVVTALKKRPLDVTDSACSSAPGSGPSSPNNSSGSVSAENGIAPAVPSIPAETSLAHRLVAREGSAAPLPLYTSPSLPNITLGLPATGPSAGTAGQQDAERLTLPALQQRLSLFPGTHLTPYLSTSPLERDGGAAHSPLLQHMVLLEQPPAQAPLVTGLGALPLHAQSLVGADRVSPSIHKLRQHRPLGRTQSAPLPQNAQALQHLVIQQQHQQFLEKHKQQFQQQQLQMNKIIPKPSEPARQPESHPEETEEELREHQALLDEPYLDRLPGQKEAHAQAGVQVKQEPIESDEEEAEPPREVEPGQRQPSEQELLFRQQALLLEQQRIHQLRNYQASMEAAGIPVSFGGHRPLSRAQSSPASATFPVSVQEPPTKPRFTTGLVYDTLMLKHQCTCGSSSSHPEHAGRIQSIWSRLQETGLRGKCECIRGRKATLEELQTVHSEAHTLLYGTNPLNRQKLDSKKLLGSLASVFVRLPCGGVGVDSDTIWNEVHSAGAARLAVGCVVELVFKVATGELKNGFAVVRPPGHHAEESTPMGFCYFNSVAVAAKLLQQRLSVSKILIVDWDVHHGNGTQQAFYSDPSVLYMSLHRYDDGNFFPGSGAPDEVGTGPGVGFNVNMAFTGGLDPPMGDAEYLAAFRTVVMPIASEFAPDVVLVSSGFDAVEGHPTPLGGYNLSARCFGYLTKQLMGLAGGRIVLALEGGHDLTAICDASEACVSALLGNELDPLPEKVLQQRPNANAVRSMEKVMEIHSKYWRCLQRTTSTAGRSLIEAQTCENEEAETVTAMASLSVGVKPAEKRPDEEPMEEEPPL
T2 sequence (Q13547 whole entry): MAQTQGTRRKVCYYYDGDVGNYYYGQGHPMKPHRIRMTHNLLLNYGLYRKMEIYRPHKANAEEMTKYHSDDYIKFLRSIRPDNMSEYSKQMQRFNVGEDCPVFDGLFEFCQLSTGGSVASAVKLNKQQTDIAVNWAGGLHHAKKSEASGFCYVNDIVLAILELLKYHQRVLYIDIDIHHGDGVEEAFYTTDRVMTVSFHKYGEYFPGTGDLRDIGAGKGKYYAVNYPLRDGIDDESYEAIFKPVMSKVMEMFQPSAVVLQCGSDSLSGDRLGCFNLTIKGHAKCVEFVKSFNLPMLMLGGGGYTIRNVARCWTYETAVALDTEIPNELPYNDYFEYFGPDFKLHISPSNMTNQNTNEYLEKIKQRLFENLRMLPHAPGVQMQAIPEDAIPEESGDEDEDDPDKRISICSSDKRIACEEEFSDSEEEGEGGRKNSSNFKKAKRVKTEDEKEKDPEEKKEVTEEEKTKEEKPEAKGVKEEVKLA

| Activity (Histone deacetylase 3 [1]) | Activity (Histone deacetylase 1 [2]) | Activity [3] | IC50 (Histone deacetylase 1 [6]) [nM] | IC50 (Histone deacetylase 3 [7]) [nM] | IC50 [8] [nM] | IC50 (Histone deacetylase 4 [9]) [nM] | IC50 (Histone deacetylase 4 [10]) [nM] | Structure (SMILES) | other results |
| --- | --- | --- | --- | --- | --- | --- | --- | --- | --- |
| inactive | inactive | inactive |  |  |  |  |  | CN(Cc1ccccc1)C(=O)c1ccc(C(O)C(F)(F)F)s1 (centres undefined) | Activity (Histone deacetylase 4 [4]): inactive; Activity [5]: inactive |
| inactive | inactive | inactive |  |  |  |  |  | O=C(c1ccc(P(=O)(O)O)s1)N1CCc2ccccc21 | Activity (Histone deacetylase 4 [4]): inactive; Activity [5]: inactive |
| inactive | inactive | inactive |  |  |  |  |  | O=C(c1ccc(B(O)O)s1)N1CCc2ccccc21 | Activity (Histone deacetylase 4 [4]): inactive; inhibition [5]: 42% |
| inactive | inactive | inactive |  |  |  |  |  | CS(=O)(=O)c1ccc(C(=O)N2CCc3ccccc32)s1 | Activity (Histone deacetylase 4 [4]): inactive; inhibition [5]: 47% |
|  |  | inactive | 4200 | 2900 |  |  |  | COc1ccc(CNC(=O)c2ccc(C(=O)C(F)(F)C(F)(F)F)s2)cc1 | Activity (Histone deacetylase 4 [4]): inactive; Activity [5]: inactive |
| inactive | inactive | inactive |  |  | 880 |  |  | O=C(c1ccc(C(=O)C(F)(F)F)[nH]1)N1CCc2ccccc21 | inhibition (Histone deacetylase 4 [4]): 47% |
| inactive | inactive |  |  |  | 640 | 2500 | 1700 | CN(Cc1ccccc1)C(=O)c1cc(C(=O)C(F)(F)F)cs1 |  |
|  |  |  | 3100 | 4600 | 490 | 1100 | 970 | CN(Cc1ccccc1)Cc1ccc(C(=O)C(F)(F)F)s1 |  |
| inactive | inactive | inactive |  |  | 6900 |  |  | CC(=O)c1ccc(C(=O)N[C@H](C)c2ccccc2)s1 | Activity (Histone deacetylase 4 [4]): inactive |
|  |  |  | 1800 | 1200 | 230 | 170 | 510 | CN(Cc1ccccc1)C(=O)c1ccc(C(=O)C(F)(F)F)s1 |  |
| inactive | inactive |  |  |  | 410 | 2700 | 5500 | COc1ccc(COCc2ccc(C(=O)C(F)(F)F)s2)cc1 |  |
|  |  |  | 210 | 120 | 240 | 70 | 180 | COc1ccc(CNC(=O)c2ccc(C(=O)C(F)(F)F)s2)cc1 |  |
|  |  |  | 880 | 1700 | 210 | 180 | 330 | O=C(NCCc1ccccc1)c1ccc(C(=O)C(F)(F)F)s1 |  |
|  |  |  | 7100 |  | 310 | 1000 | 1700 | CCNC(=O)c1ccc(C(=O)C(F)(F)F)s1 |  |
| inactive | inactive | inactive |  |  |  |  |  | O=C(c1ccc(C2(C(F)(F)F)OCCO2)s1)N1CCc2ccccc21 | Activity (Histone deacetylase 4 [4]): inactive; Activity [5]: inactive |
| inactive | inactive | inactive |  |  |  |  |  | CN(Cc1ccc2nccnc2c1)C(=O)c1ccc(C(=O)O)s1 | Activity (Histone deacetylase 4 [4]): inactive; Activity [5]: inactive |
| inactive |  |  |  |  | 2000 | 2400 | 3300 | O=C(NCC1CCCCC1)c1cc(C(=O)C(F)(F)F)cs1 | inhibition (Histone deacetylase 1 [2]): 40% |
|  |  |  | 5700 | 3500 | 550 | 350 | 320 | CCOC(=O)c1ccc(C(=O)C(F)(F)F)s1 |  |
|  |  |  |  | 7300 | 1300 | 2200 | 760 | CN(Cc1ccccc1)C(=O)c1cnc(C(=O)C(F)(F)F)s1 | inhibition (Histone deacetylase 1 [2]): 46% |
| inactive | inactive |  |  |  | 730 | 1200 | 340 | CN(Cc1ccccc1)S(=O)(=O)c1ccc(C(=O)C(F)(F)F)s1 |  |
| inactive | inactive | inactive |  |  | 4200 |  |  | O=C(NCC1CCCCC1)c1cccc(C(=O)C(F)(F)F)c1 | Activity (Histone deacetylase 4 [4]): inactive |
|  | inactive |  |  | 7600 | 1500 | 2900 | 850 | O=C(NCC1CCCCC1)c1cnc(C(=O)C(F)(F)F)s1 |  |
| inactive | inactive |  |  |  | 840 | 3500 | 3700 | C[C@@H](NCc1ccc(C(=O)C(F)(F)F)s1)c1ccccc1 |  |
|  |  |  | 2900 | 3100 | 460 | 350 | 400 | O=C(NCC1CCCCC1)c1ccc(C(=O)C(F)(F)F)s1 |  |
| inactive |  |  |  |  | 550 | 3100 | 2500 | CCOC(=O)c1ccc(C(=O)C(F)(F)F)o1 | inhibition (Histone deacetylase 1 [2]): 48% |
| inactive | inactive | inactive |  |  | 2500 |  | 9400 | CN(Cc1ccccc1)S(=O)(=O)c1csc(C(=O)C(F)(F)F)c1 |  |
| inactive | inactive |  |  |  | 2500 |  |  | O=C(NCC1CCCCC1)c1ccc(C(=O)C(F)(F)F)cc1 | inhibition [3]: 31%; inhibition (Histone deacetylase 4 [4]): 32% |

| Structure (SMILES) | Activity (Histone deacetylase 3 [1]) | Activity (Histone deacetylase 1 [2]) | Activity [3] | IC50 (Histone deacetylase 1 [6]) [nM] | IC50 (Histone deacetylase 3 [7]) [nM] | IC50 [8] [nM] | IC50 (Histone deacetylase 4 [9]) [nM] | IC50 (Histone deacetylase 4 [10]) [nM] | other results |
| --- | --- | --- | --- | --- | --- | --- | --- | --- | --- |
| O=C(c1ccc(C(=O)C(F)(F)F)s1)N1CCc2ccccc21 |  |  |  | 2000 | 1700 | 200 | 300 | 130 |  |
| O=C(c1ccc(C(=O)N2CCc3ccccc32)s1)C(F)F |  |  |  | 9700 |  | 15 | 420 | 7600 | inhibition (Histone deacetylase 3 [1]): 42% |
| C[C@@H](NC(=O)c1ccc(C(=O)C(F)(F)F)s1)c1ccccc1 |  |  |  | 320 | 230 | 360 | 160 | 76 |  |
| C[C@H](NC(=O)c1ccc(C(=O)C(F)(F)F)s1)c1ccccc1 |  |  |  | 5300 | 9400 | 210 | 280 | 170 |  |
